Measured values reported in patent publication US4425355A, “Substituted acyl derivatives of chair form of octahydro-1H-indole-2-carboxylic acids” (Warner-Lambert Company, priority 1981, dated 1984).
Counter-ions that a name gives are not always drawn.

Molecular target: T1, Angiotensin converting enzyme (ACE) (Cavia porcellus, UniProt H0UWL7)
T1 construct: ACE from guinea pig serum and the test compounds are preincubated for 10 minutes; from tissue; host or cells: guinea pig serum
T1 sequence (H0UWL7 33-1302): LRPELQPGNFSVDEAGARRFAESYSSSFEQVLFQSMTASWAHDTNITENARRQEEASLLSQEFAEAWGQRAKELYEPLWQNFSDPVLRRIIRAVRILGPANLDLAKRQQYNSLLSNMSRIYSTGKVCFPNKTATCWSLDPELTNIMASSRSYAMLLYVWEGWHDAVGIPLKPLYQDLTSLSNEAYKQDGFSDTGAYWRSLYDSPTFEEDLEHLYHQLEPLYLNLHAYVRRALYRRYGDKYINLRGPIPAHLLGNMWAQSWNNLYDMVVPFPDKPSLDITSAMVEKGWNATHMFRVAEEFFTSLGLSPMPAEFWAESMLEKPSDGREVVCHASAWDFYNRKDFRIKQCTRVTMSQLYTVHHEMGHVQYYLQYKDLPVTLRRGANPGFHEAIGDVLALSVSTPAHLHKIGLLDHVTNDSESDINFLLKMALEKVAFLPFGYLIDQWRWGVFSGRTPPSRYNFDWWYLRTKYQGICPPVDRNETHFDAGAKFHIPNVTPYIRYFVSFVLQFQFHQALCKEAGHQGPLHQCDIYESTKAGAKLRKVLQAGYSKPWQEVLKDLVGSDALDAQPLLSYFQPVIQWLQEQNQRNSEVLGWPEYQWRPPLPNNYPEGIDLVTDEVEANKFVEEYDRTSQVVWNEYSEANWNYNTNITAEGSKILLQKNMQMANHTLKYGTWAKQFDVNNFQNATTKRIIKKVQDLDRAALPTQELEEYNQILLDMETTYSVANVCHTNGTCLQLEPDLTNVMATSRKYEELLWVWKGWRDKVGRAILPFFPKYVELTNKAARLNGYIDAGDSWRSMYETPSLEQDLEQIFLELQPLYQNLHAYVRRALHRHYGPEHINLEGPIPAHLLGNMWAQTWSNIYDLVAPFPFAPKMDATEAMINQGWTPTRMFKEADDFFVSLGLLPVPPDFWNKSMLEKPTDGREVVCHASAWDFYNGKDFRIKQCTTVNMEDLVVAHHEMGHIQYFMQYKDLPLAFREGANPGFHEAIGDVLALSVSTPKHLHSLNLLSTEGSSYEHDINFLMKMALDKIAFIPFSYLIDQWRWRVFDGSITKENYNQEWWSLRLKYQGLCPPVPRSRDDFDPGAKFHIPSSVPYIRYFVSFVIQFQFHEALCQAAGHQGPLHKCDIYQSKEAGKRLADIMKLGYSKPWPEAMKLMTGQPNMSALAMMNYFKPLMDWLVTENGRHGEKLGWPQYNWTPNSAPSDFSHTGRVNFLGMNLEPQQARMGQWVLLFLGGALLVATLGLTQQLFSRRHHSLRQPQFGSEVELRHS
Assay: In vitro ACE Assay: angiotensin converting enzyme inhibitory activity (guinea pig serum ACE, 3H-hippuryl-glycyl-glycine substrate)
Type: biochemical
Details: 10 min preincubation, 60 minute incubation at 37° C., read-out: IC50 (Activity of Compounds of Formula V)
Protocol: In vitro ACE Assay: Angiotensin converting enzyme (ACE) inhibitory activity is determined by assaying guinea pig serum ACE in the presence and absence of the test compound. ACE from guinea pig serum and the test compounds are preincubated for 10 minutes before the addition of the labelled substrate ^3 H-hippuryl-glycyl-glycine. […] ACE cleaves the hippuryl-glycyl bond to form the dipeptide glycyl-glycine and ^3 H-hippuric acid. The ^3 H-hippuric acid is then extracted with ethyl acetate and the ACE inhibition of a given sample calculated on the basis of the ^3 H-hippuric acid generated.

| IC50 | Structure (SMILES) |
| --- | --- |
| 6700 nM | CCOC(=O)[C@@H]1C[C@@H]2CCCC[C@@H]2N1C(=O)C(C)CSC(C)=O (relative stereo) [V: R=C2 H5, R1=CH3, R2=CH3 CO, --, Ethyl (2α,3aβ,7aβ)-Octahydro-1-[3-(acetylthio)-2-methylpropanoyl]-1H-indole-2-carboxylate] |
| 16 nM | CC(CS)C(=O)N1[C@H](C(=O)O)C[C@@H]2CCCC[C@@H]21 (relative stereo) [V: R=H, R1=CH3, R2=H, --, (2α,3aβ,7aβ)-Octahydro-1-(3-mercapto-2-methylpropanoyl)-1H-indole-2-carboxylic acid] |
| 480 nM | CC(=O)SCCC(=O)N1[C@H](C(=O)O)C[C@@H]2CCCC[C@@H]21 (relative stereo) [V: R=H, R1=H, R2=CH3 CO, l, (1)-(2α,3aβ,7aβ)-Octahydro-1-[3-(acetylthio)-propanoyl]-1H-indole-2-carboxylic Acid] |
| 6.4 nM | O=C(O)[C@@H]1C[C@@H]2CCCC[C@@H]2N1C(=O)CCS (relative stereo) [V: R=H, R1=H, R2=H, l, (1)-(2α,3aβ,7aβ)-Octahydro-1-(3-mercaptopropanoyl)-1H-indole-2-carboxylic Acid] |
| 170 nM | CC(CSC(=O)C(C)(C)C)C(=O)N1[C@H](C(=O)O)C[C@@H]2CCCC[C@@H]21 (single isomer, unassigned) [V: R=H, R1=CH3, R2=(CH3)3 CCO, dl, A, (2α,3aβ,7aβ)-Octahydro-1-[3-(2,2-dimethylpropanoylthio)-2-methylpropanoyl]-1H-indole-2-carboxylic Acid] |
| 52 nM | CCC(=O)SCC(C)C(=O)N1[C@H](C(=O)O)C[C@@H]2CCCC[C@@H]21 (single isomer, unassigned; diastereomer a) [V: R=H, R1=CH3, R2=CH3 CH2 CO, dl, A, (2α,3aβ,7aβ)-Octahydro-1-[3-(propanoylthio)-2-methylpropanoyl]-1H-indole-2-carboxylic Acid, (Diastereomer A)] |
| 160 nM | CC(=O)SCC(C)C(=O)N1[C@H](C(=O)O)C[C@@H]2CCCC[C@@H]21 (single isomer, unassigned; diastereomer a) [V: R=H, R1=CH3, R2=CH3 CO, A, (2α,3aβ,7aβ)-Octahydro-1-[3-(acetylthio)-2-methyl-propanoyl]-1H-indole-2-carboxylic Acid, Diastereomer A] |
| 7 nM | CC(CS)C(=O)N1[C@H](C(=O)O)C[C@@H]2CCCC[C@@H]21 (single isomer, unassigned; diastereomer a) [V: R=H, R1=CH3, R2=H, dl, A, (2α,3aβ,7aβ)-Octahydro-1-(3-mercapto-2-methylpropanoyl)-1H-indole-2-carboxylic Acid, Diastereomer A] |
| 960 nM | CC(CSC(=O)c1ccccc1)C(=O)N1[C@H](C(=O)O)C[C@@H]2CCCC[C@@H]21 (single isomer, unassigned; diastereomer a) [V: R=H, R1=CH3, R2=PhCO, dl, A, (2α,3aβ,7aβ)-Octahydro-1-[3-(benzoylthio)-2-methylpropaoyl]-1H-indole-2-carboxylic Acid (Diastereomer A) t-Butylamine Salt] |
| 1100 nM | CC(=O)SCC(C)C(=O)N1[C@H](C(=O)O)C[C@@H]2CCCC[C@@H]21 (single isomer, unassigned; diastereomer b) [V: R=H, R1=CH3, R2=CH3 CO, dl, B, (2α,3aβ,7aβ)-Octahydro-1-[3-(acetylthio)-2-methylpropanoyl]-1H-indole-2-carboxylic Acid, Diastereomer B.] |
